Reference: US7803769B2 (priority 2006, dated 2010)
“Also recorded” adds a separate entry of the source.

B1: L2-6H-L3-CH2-L10-OsK1 (1-38) (protein)
chain: MGGHHHHHHGGGPSVFLFPPKPKDTLMISRTPEVTCVVVDVSHEDPEVKFNWYVDGVEVHNAKTKPREEQYNSTYRVVSVLTVLHQDWLNGKEYKCKVSNKALPAPIEKTISGGGGSGGGGSGVIINVKCKISRQCLEPCKKAGMRFGKCMNGKCHCTPK

Tests used:
[1] = molecular target: human Kv1.3 channel (Homo sapiens, UniProt P22001); format: cell-based
[2] = system: thapsigargin-induced IFN-g production in human whole blood; format: cell-based
[3] = system: IL-2R on CD4+ T cells in human whole blood; format: cell-based
[4] = system: CD40L on CD4+ T cells in human whole blood; format: cell-based
[5] = system: thapsigargin-induced IL-2 production in human whole blood

Sequence of human Kv1.3 channel (P22001 whole entry): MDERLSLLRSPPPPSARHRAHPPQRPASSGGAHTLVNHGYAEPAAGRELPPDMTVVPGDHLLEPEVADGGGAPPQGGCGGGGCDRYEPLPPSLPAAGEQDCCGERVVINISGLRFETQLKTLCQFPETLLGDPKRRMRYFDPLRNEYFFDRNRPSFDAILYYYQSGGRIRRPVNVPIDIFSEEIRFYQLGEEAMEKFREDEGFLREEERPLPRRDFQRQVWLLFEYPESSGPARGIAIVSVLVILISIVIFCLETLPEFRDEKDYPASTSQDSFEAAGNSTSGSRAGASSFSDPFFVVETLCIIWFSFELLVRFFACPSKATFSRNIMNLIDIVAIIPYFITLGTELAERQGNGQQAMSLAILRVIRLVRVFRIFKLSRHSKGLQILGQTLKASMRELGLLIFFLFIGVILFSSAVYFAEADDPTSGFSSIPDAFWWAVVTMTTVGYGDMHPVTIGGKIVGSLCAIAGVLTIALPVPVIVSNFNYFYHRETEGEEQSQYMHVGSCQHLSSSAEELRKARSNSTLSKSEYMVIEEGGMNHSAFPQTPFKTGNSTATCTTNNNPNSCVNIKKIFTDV

Molecule	block of human Kv1.3 current (in words) [1]	thapsigargin-induced IFN-g production in human whole blood (in words) [2]	thapsigargin-induced upregulation of IL-2R on T cells (in words) [3]	thapsigargin-induced upregulation of CD40L on T cells (in words) [4]	thapsigargin-induced IL-2 production in human whole blood (in words) [5]	IC50 ([2]; read-out: WB/IFNg (IC50))	IC50 ([5]; read-out: WB/IL-2 (IC50))
Fc-L10-ShK[2-35]: human IgG1 Fc fused via 10 amino acid linker to ShK[2-35]	potently blocks human Kv1.3 current	suppressed; also recorded: blocked	blocked	blocked			
IbTx: BKCa channel inhibitor iberiotoxin, purchased from Bachem (QFTDVDCSVSKECWSVCKDLFGVDRGKCMGKKCRCYQ; Definition of Artificial Sequence: Synthetic peptide) [reference compound]		no significant activity	no significant activity	no significant activity	no significant activity		
B1						55.2 nM	38.5 nM
